Assay results from US20220387375A1, “TRPV1 ACTIVATION-MODULATING COMPLEX MIXTURES OF CANNABINOIDS AND/OR TERPENES” (GBS Global Biopharma, Inc., priority 2018, published 2022).

Legend:
Assay type in all cases: cell-based
TRPA1 = molecular target: T1, TRPA1 (Homo sapiens, UniProt O75762); experiment: Bulk calcium assay (Fluo-4) in HEK cells overexpressing TRPA1
T1 construct: host or cells: HEK TRex293
Procedure: (§1) HEK TRexTRPV1 were cultured in DMEM, 10% Fetal Bovine Serum, 2 mM Lglutamine, 10 μg/ml Blasticidin (Calbiochem, San Diego Calif.), 400 μg/ml Zeocin (InvivoGen, San Diego Calif.), where indicated transgene expression was induced using 1 μg/ml Tetracycline for 16-24 hrs. Unless otherwise indicated, basal expression of TRPV1 without induction was sufficient for these studies, and comparisons were made to untransfected HEK where needed. HEKTRex293 over-expressing human TRPV2, human TRPA1 and human TRPM8 were obtained from SB Drug Discovery (Glasgow, Scotland) and cultured as described above. The cannabinoids and terpenes were assayed in HEK cells that have been transfected with the TRPV1 ion channel protein. These cells are called HEK293-V1 cells.
(§2) Cells were washed and incubated with 0.2 micromolar Fluo-4 for 30 minutes at 37° C. in a standard modified Ringer's solution of the following composition (in mM): NaCl 145, KCl 2.8, CsCl 10, CaCl2 10, MgCl2 2, glucose 10, Hepes·NaOH 10, pH 7.4, 330 mOsm. Cells were transferred to 96-well plates at 50,000 cells/well and stimulated as indicated. Calcium signals were acquired using a Flexstation 3 (Molecular Devices, Sunnydale, USA). Data was analyzed using SoftMax® Pro 5 (Molecular Devices). Where indicated, nomically calcium-free external conditions were achieved by the preparation of 0 mM CaCl2 Ringer solution containing 1 mM EGTA.
(§3) Calcium responses mediated by TRPA1, TRPM8, TRPV2, and TRPV1 were tested by calcium assay in the cell culture system. Cells were washed and incubated with 0.2 μM fluo-4 acetoxymethyl ester (“Fluo-4”) for 30 minutes at 37° C. in a standard modified Ringer's solution of the following composition (in mM): NaCl 145, KCl 2.8, CsCl 10, CaCl2 10, MgCl2 2, glucose 10, Hepes·NaOH 10, pH 7.4, 330 mOsm. Cells were transferred to 96-well plates at 50,000 cells/well and stimulated with 10 μM myrcene diluted in DMSO. Vehicle (DMSO) was used as a negative control. Vehicle traces were subtracted from the myrcene traces for each cell line.
(§4) The potential for different cannabinoids to target specific TRP channels, or to co-target more than one channel type, are of potential therapeutic options for the treatment and management of pain. Comparison of the impacts of a variety of cannabinoid on overexpression systems for TRPV2, TRPM8, and TRPA1 were performed in a side-by-side fashion, under bulk calcium assays where the measurements with each trace representing averaged triplicates of 100,000 cells per sample. As shown in FIGS. 41-43 and summarized in Table 3, there are clear differences in responsiveness between cannabinoids at a single channel type than between channel types to a given cannabinoid.

TRPM8 = molecular target: T2, TRPM8 (Homo sapiens, UniProt Q7Z2W7); experiment: Bulk calcium assay (Fluo-4) in HEK cells overexpressing TRPM8
T2 construct: host or cells: HEK TRex293
T2 sequence (Q7Z2W7 whole entry): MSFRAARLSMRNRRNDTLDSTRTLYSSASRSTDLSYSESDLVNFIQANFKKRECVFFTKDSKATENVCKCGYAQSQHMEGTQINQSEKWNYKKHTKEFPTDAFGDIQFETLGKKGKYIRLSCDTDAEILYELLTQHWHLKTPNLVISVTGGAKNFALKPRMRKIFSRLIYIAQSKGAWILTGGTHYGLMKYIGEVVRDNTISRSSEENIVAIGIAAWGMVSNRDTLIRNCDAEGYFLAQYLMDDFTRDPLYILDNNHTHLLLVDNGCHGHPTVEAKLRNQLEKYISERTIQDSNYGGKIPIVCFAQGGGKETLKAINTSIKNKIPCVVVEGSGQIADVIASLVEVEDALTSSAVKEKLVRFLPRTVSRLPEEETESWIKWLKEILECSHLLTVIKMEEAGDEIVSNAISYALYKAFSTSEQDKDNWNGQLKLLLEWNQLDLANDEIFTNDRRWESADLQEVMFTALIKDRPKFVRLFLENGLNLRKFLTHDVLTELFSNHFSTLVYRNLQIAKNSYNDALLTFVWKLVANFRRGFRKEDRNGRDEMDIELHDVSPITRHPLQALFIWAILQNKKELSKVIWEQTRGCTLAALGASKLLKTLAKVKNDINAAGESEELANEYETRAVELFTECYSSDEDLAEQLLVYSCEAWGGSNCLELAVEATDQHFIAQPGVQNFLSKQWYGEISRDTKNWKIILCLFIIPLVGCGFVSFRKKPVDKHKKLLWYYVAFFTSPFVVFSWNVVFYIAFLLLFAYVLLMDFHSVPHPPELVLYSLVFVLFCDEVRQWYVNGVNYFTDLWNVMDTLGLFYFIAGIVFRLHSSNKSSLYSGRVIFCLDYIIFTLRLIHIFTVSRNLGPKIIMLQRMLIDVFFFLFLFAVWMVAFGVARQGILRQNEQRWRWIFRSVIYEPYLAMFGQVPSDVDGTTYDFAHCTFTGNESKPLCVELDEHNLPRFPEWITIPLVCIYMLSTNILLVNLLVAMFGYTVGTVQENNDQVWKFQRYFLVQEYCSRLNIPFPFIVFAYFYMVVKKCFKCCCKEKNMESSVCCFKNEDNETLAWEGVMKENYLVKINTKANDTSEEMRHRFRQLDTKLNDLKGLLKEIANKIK
Procedure: as §1, §2, §3, §4

TRPV1 = molecular target: T3, TRPV1 (Rattus norvegicus, UniProt O35433); experiment: Bulk calcium assay (Fluo-4) in HEK-TRPV1 overexpressing cells; conditions: bulk calcium assay; TRPV1; mean (SD)
T3 construct: FLAG; expressed in transfected cells
T3 sequence (O35433 whole entry): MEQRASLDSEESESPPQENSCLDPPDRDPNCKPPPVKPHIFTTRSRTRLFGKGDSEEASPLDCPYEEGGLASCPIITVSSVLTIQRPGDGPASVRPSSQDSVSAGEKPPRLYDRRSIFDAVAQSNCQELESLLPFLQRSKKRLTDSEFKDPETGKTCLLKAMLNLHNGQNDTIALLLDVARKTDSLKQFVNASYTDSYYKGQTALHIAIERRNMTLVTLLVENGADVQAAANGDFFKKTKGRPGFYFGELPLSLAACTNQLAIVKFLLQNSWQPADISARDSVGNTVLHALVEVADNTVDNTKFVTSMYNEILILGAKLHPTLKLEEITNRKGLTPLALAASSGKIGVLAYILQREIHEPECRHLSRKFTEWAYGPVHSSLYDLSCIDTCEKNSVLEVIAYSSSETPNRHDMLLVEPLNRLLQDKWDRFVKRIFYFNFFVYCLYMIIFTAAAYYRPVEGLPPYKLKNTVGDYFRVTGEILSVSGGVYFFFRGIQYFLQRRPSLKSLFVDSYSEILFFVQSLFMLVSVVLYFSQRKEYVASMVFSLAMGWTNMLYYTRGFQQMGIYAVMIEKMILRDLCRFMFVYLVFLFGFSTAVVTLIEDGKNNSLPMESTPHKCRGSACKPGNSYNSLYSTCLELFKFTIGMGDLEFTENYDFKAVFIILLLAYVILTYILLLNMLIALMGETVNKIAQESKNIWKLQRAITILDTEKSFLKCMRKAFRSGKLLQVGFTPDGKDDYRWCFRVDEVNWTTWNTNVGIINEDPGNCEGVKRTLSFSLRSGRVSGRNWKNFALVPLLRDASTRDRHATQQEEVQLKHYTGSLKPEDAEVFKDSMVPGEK
Procedure: as §2
The cell culture system described in U.S. patent application Ser. No. 15/986,316 was used to test the TRPV1-mediated calcium response to various terpenes. The HEK293 cell line was stably transfected with the pcDNA6TR (Invitrogen, CA) plasmid (encoding the tetracycline-sensitive TREx repressor protein), and was maintained in DMEM+10% fetal bovine serum (inactivated at 55° C. for 1 h)+2 mM glutamine in humidified 5% CO2 atmosphere at 37° C. Selection pressure on the TRex 293 cells was maintained by continuous culture in 10 μg/ml Blasticidin (Sigma, St Louis, Mo.).
For production of TRex HEK293 cells with inducible expression of TRPV1, parental cells were electroporated with the rat TRPV1 cDNA in the pcDNA4TO vector and clonal cell lines were selected by limiting dilution in the presence of 400 μg/ml zeocin (Invitrogen, CA). TRPV1 expression was induced using 1 μg/ml tetracycline for 16 h at 37° C. Stable lines were screened for inducible protein expression using anti-FLAG Western blot, and inducible expression was confirmed.
Calcium responses mediated by TRPV1 were tested by calcium assay in the cell culture system. Cells were washed and incubated with 0.2 μM fluo-4 acetoxymethyl ester (“Fluo-4”) for 30 minutes at 37° C. in a standard modified Ringer's solution of the following composition (in mM): NaCl 145, KCl2.8, CsCl10, CaCl2 10, MgCl2 2, glucose 10, Hepes·NaOH 10, pH 7.4, 330 mOsm. Cells were transferred to 96-well plates at 50,000 cells/well and stimulated as indicated. The terpenes used were alpha-bisabool, alpha-pinene, myrcene, camphene, linalool, ocimene, humulene, beta-caryophyllene, beta-pinene, limonene, and nerolidol. The terpenes were diluted in DMSO and added to the wells to a final concentration of 10 μM. Vehicle (DMSO) alone was run as a negative control and subtracted from the terpene traces. Calcium signals were acquired using a Flexstation 3 (Molecular Devices, Sunnydale, USA). Data was analyzed using SoftMax® Pro 5 (Molecular Devices).
as §3
As shown in FIGS. 16A-H, a variety of cannabinoids were capable of initiating Ca^2+ fluxes in HEK-TRPV1 overexpressing cells, except for cannabigerol and cannabinol. Comparative responses to a single dose (10 μM concentration) of a variety of cannabinoids were made in the presence of 1 mM external Ca^2+, which are population-based, or bulk Ca^2+, measurements with each trace representing averaged triplicates of 100,000 cells per sample. […] For each of the cannabinoid compounds, dose responses at the population level were performed. […] The lower limit of detectable calcium responses in this system varied from 10-100 nM (CBDV, CBGA) to 1-10 μM.

TRPV2 = molecular target: T4, TRPV2 (Homo sapiens, UniProt Q9Y5S1); experiment: Bulk calcium assay (Fluo-4) in HEK cells overexpressing TRPV2
T4 construct: host or cells: HEK TRex293
T4 sequence (Q9Y5S1 1-764): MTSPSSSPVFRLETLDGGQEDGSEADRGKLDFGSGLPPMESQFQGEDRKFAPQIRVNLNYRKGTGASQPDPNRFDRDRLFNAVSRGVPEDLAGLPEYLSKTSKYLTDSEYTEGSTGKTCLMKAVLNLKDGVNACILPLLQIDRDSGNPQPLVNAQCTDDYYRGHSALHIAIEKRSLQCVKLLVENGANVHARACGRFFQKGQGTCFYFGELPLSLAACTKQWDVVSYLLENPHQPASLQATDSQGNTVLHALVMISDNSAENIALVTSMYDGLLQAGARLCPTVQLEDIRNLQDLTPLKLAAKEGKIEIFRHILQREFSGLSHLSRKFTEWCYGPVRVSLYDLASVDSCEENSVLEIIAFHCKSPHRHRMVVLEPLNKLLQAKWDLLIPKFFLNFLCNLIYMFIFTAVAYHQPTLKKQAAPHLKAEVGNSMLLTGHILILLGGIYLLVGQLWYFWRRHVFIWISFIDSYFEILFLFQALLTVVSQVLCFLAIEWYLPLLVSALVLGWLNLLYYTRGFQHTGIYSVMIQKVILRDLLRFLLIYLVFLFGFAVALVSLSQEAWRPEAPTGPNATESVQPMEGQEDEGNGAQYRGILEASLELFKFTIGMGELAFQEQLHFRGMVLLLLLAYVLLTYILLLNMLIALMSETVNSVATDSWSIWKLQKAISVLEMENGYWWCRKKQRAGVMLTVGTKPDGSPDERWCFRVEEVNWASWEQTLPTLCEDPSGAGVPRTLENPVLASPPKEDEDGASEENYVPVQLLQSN
Procedure: as §1, §2, §3, §4

WT HEK293 = experiment: Bulk calcium assay in untransfected WT HEK293; conditions: 10 μM, 1 mM external Ca2+

T1 sequence (O75762 whole entry): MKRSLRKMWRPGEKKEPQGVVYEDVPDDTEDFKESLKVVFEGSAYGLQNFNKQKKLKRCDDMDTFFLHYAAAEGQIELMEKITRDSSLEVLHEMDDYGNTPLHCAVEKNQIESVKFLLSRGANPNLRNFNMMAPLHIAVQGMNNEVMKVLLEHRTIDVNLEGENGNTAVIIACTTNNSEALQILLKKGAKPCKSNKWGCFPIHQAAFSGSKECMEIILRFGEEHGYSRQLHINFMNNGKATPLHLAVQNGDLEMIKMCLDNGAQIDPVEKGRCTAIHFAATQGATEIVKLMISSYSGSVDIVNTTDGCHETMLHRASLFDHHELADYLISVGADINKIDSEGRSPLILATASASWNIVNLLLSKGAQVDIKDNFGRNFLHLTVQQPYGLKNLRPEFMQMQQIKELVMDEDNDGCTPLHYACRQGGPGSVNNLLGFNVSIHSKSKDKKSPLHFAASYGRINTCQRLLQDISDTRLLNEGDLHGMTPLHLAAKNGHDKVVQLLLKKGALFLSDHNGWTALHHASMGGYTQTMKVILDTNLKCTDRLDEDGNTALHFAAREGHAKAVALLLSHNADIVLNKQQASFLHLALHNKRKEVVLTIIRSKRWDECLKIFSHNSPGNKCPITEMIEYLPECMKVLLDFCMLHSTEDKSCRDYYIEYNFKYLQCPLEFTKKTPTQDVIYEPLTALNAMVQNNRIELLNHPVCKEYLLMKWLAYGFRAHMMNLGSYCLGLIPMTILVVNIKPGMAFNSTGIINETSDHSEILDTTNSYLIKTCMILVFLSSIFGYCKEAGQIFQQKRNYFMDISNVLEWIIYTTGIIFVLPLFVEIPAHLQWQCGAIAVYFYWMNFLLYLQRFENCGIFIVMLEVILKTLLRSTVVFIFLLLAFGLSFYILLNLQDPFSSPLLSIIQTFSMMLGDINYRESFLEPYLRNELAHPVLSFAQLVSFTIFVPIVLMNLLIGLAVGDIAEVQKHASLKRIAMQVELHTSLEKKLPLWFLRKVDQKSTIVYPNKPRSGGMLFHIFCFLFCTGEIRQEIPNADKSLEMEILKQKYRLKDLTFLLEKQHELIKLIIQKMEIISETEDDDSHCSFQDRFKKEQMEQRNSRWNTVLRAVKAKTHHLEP

CCCCCc1cc(O)c2c(c1)OC(C)(CCC=C(C)C)C=C2 (stereo not shown) [CBC, Cannabichromene]
mean maximal Ca^2+ signal RFU achieved 0-180 s (SD), TRPA1 (TRPA1): 15.13 (3.35) RFU
mean maximal Ca^2+ signal RFU achieved 0-180 s (SD), TRM8 (TRPM8): 0.97 (0.03) RFU
mean maximal Ca^2+ signal RFU achieved 0-180 s (SD), TRPV1 (TRPV1): 3.23 (0.12) RFU
mean maximal Ca^2+ signal RFU achieved 0-180 s (SD), TRPV1 (TRPV2): 21.66 (1.89) RFU

C=C(C)[C@@H]1CCC(C)=C[C@H]1c1c(O)cc(CCCCC)c(C(=O)O)c1O [CBDA, Cannabidiolic Acid]
mean maximal Ca^2+ signal RFU achieved 0-180 s (SD), TRPA1 (TRPA1): 10.09 (3.08) RFU
mean maximal Ca^2+ signal RFU achieved 0-180 s (SD), TRM8 (TRPM8): 1.92 (0.04) RFU
mean maximal Ca^2+ signal RFU achieved 0-180 s (SD), TRPV1 (TRPV1): 4.62 (0.66) RFU
mean maximal Ca^2+ signal RFU achieved 0-180 s (SD), TRPV1 (TRPV2): 3.69 (1.2) RFU

CCCCCc1cc(O)c(C/C=C(\C)CCC=C(C)C)c(O)c1C(=O)O [CBGA, Cannabigerolic Acid]
mean maximal Ca^2+ signal RFU achieved 0-180 s (SD), TRPA1 (TRPA1): 3.65 (1.11) RFU
mean maximal Ca^2+ signal RFU achieved 0-180 s (SD), TRM8 (TRPM8): 0.3 (0.01) RFU
mean maximal Ca^2+ signal RFU achieved 0-180 s (SD), TRPV1 (TRPV1): 13.77 (0.31) RFU
calcium response of WT HEK293 (WT HEK293): responding slightly
mean maximal Ca^2+ signal RFU achieved 0-180 s (SD), TRPV1 (TRPV2): 0.78 (0.02) RFU
